Source: PubChem BioAssay (NCI)
Several values for one entry are separate records, joined by “and”; a condition that tells them apart may be missing. Equal values may be shown once.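 Interpolation was linear, between the two tested concentrations surrounding the appropriate level; five concentrations were tested over 48 hours in 96-well plates. GI50: concentration for 50% inhibition of growth. The concentration for full growth arrest is given as TGI.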

What was measured:
Experiment in all cases: NCI-60 cell line screen, 48 h
KM12 colon = tested on: KM12 colon
SK-MEL-28 melanoma = tested on: SK-MEL-28 melanoma
M14 melanoma = tested on: M14 melanoma
HCT-116 colon = tested on: HCT-116 colon
SK-MEL-5 melanoma = tested on: SK-MEL-5 melanoma
HCC-2998 colon = tested on: HCC-2998 colon
SN12C renal = tested on: SN12C renal
UACC-62 melanoma = tested on: UACC-62 melanoma
SNB-19 CNS = tested on: SNB-19 CNS
DU-145 prostate = tested on: DU-145 prostate

O=C(NCCc1ccccc1)C(c1csc2ccccc12)N(C(=O)CCl)c1ccc(-c2cnco2)cc1 (centres undefined)
GI50 (KM12 colon): 0.291 µM | TGI (KM12 colon): 0.898 µM | GI50 (SK-MEL-28 melanoma): 1.69 µM | TGI (SK-MEL-28 melanoma): 3.12 µM | GI50 (M14 melanoma): 1.38 µM | TGI (M14 melanoma): 2.83 µM | GI50 (HCT-116 colon): 0.889 µM | TGI (HCT-116 colon): 2.37 µM | GI50 (SK-MEL-5 melanoma): 1.62 µM | TGI (SK-MEL-5 melanoma): 3.01 µM | GI50 (HCC-2998 colon): 1.69 µM | TGI (HCC-2998 colon): 3.22 µM | GI50 (SN12C renal): 0.412 µM | TGI (SN12C renal): 2.03 µM | GI50 (UACC-62 melanoma): 1.3 µM | TGI (UACC-62 melanoma): 2.85 µM | GI50 (SNB-19 CNS): 1.7 µM | TGI (SNB-19 CNS): 3.16 µM | GI50 (DU-145 prostate): 0.461 µM | TGI (DU-145 prostate): 2.3 µM

COc1ccc(C2CC(c3cccc(Nc4ccnc5cc(Cl)ccc45)c3)=NN2c2ccccc2)cc1 (centres undefined)
GI50 (KM12 colon): 0.226 µM | TGI (KM12 colon): 19.6 µM | GI50 (SK-MEL-28 melanoma): 4.41 µM | TGI (SK-MEL-28 melanoma): 32.5 µM | GI50 (M14 melanoma): 0.331 µM | TGI (M14 melanoma): 15.4 µM | GI50 (HCT-116 colon): 1.12 µM | TGI (HCT-116 colon): 18.7 µM | GI50 (SK-MEL-5 melanoma): 1.46 µM | TGI (SK-MEL-5 melanoma): 4.76 µM | GI50 (HCC-2998 colon): 0.535 µM | TGI (HCC-2998 colon): 11.5 µM | GI50 (SN12C renal): 7.19 µM | TGI (SN12C renal): > 100 µM | GI50 (UACC-62 melanoma): 0.051 µM | TGI (UACC-62 melanoma): 11.7 µM | GI50 (SNB-19 CNS): 6.9 µM | TGI (SNB-19 CNS): > 100 µM | GI50 (DU-145 prostate): 14 µM | TGI (DU-145 prostate): > 100 µM

N=C(N)c1ccc(-c2ccc(-c3ccco3)o2)cc1
GI50 (KM12 colon): 3.16 µM | TGI (KM12 colon): 10.4 µM | GI50 (SK-MEL-28 melanoma): 2.31 µM | TGI (SK-MEL-28 melanoma): 6.22 µM | GI50 (M14 melanoma): 1.9 µM | TGI (M14 melanoma): 3.77 µM | GI50 (HCT-116 colon): 3.04 µM | TGI (HCT-116 colon): 10.3 µM | GI50 (SK-MEL-5 melanoma): 2.67 µM | TGI (SK-MEL-5 melanoma): 9.76 µM | GI50 (HCC-2998 colon): 1.85 µM | TGI (HCC-2998 colon): 3.42 µM | GI50 (SN12C renal): 5.97 µM | TGI (SN12C renal): 21.2 µM | GI50 (UACC-62 melanoma): 1.82 µM | TGI (UACC-62 melanoma): 3.9 µM | GI50 (SNB-19 CNS): 9.44 µM | TGI (SNB-19 CNS): 23.2 µM | GI50 (DU-145 prostate): 6.25 µM | TGI (DU-145 prostate): 19 µM

COc1cc(C2C3=C(COC3=O)N(CCO)c3cc4c(cc32)OCCO4)cc(OC)c1O (centres undefined)
GI50 (KM12 colon): 1.5 µM | TGI (KM12 colon): > 37 µM | GI50 (SK-MEL-28 melanoma): 1.15 µM | TGI (SK-MEL-28 melanoma): > 50 µM | GI50 (M14 melanoma): 1.43 µM | TGI (M14 melanoma): > 21 µM | GI50 (HCT-116 colon): 2.15 µM | TGI (HCT-116 colon): > 50 µM | GI50 (SK-MEL-5 melanoma): 1.29 µM | TGI (SK-MEL-5 melanoma): > 20.5 µM | GI50 (HCC-2998 colon): 2.04 µM | TGI (HCC-2998 colon): 19 µM | GI50 (SN12C renal): 4.1 µM | TGI (SN12C renal): > 50 µM | GI50 (UACC-62 melanoma): 0.961 µM | TGI (UACC-62 melanoma): > 50 µM | GI50 (SNB-19 CNS): 2.11 µM | TGI (SNB-19 CNS): > 50 µM | GI50 (DU-145 prostate): 1.71 µM | TGI (DU-145 prostate): > 21.7 µM

CC(C)=CCNc1ncnc2c1ncn2C1OC(COP(=O)(O)O)C(O)C1O (centres undefined)
GI50 (KM12 colon): 20.1 µM | TGI (KM12 colon): > 100 µM | GI50 (SK-MEL-28 melanoma): > 100 µM | TGI (SK-MEL-28 melanoma): > 100 µM | GI50 (M14 melanoma): 10.4 µM | TGI (M14 melanoma): > 100 µM | GI50 (HCT-116 colon): 2.07 µM | TGI (HCT-116 colon): 25.5 µM | GI50 (SK-MEL-5 melanoma): > 73.7 µM | TGI (SK-MEL-5 melanoma): > 100 µM | GI50 (HCC-2998 colon): 10.7 µM | TGI (HCC-2998 colon): > 100 µM | GI50 (SN12C renal): 3.94 µM | TGI (SN12C renal): > 100 µM | GI50 (UACC-62 melanoma): 9.03 µM | TGI (UACC-62 melanoma): > 100 µM | GI50 (SNB-19 CNS): 26.3 µM | TGI (SNB-19 CNS): > 100 µM | GI50 (DU-145 prostate): 1.35 µM | TGI (DU-145 prostate): 4.15 µM

Cc1cc(C)c2nc(Nc3nc(C)c(C)c(=O)[nH]3)nc(C)c2c1
GI50 (KM12 colon): 3.02 µM | TGI (KM12 colon): 23.9 µM | GI50 (SK-MEL-28 melanoma): 2.35 µM | TGI (SK-MEL-28 melanoma): 7.64 µM | GI50 (M14 melanoma): 2.58 µM | TGI (M14 melanoma): 8.79 µM | GI50 (HCT-116 colon): 2.94 µM | TGI (HCT-116 colon): 12.9 µM | GI50 (SK-MEL-5 melanoma): 3.06 µM | TGI (SK-MEL-5 melanoma): 11.8 µM | GI50 (HCC-2998 colon): 3.81 µM | TGI (HCC-2998 colon): 19.6 µM | GI50 (SN12C renal): 2.27 µM | TGI (SN12C renal): 12 µM | GI50 (UACC-62 melanoma): 2.08 µM | TGI (UACC-62 melanoma): 5.5 µM | GI50 (SNB-19 CNS): 3.19 µM | TGI (SNB-19 CNS): 14.3 µM | GI50 (DU-145 prostate): 3.8 µM | TGI (DU-145 prostate): 24.1 µM

NS(=O)(=O)OC[C@H]1O[C@@H](n2cnc3c(N[C@H]4CCc5ccccc54)ncnc32)[C@H](O)[C@@H]1O
GI50 (KM12 colon): 0.525 µM | TGI (KM12 colon): 2.58 µM | GI50 (SK-MEL-28 melanoma): 0.047 µM | TGI (SK-MEL-28 melanoma): 0.276 µM | GI50 (M14 melanoma): 0.226 µM | TGI (M14 melanoma): 2.35 µM | GI50 (HCT-116 colon): 0.0213 µM | TGI (HCT-116 colon): 0.114 µM | GI50 (SK-MEL-5 melanoma): 0.0369 µM | TGI (SK-MEL-5 melanoma): 0.151 µM | GI50 (HCC-2998 colon): 0.157 µM | TGI (HCC-2998 colon): 0.331 µM | GI50 (SN12C renal): 0.231 µM | TGI (SN12C renal): 1.3 µM | GI50 (UACC-62 melanoma): 0.0451 µM | TGI (UACC-62 melanoma): 0.374 µM | GI50 (SNB-19 CNS): 0.0902 µM | TGI (SNB-19 CNS): 2.05 µM | GI50 (DU-145 prostate): 0.0838 µM | TGI (DU-145 prostate): 1.36 µM

O=c1cc(N2CCOCC2)oc2c(-c3ccccc3)cccc12
GI50 (KM12 colon): 10.6 µM | TGI (KM12 colon): 44.9 µM and 28.8 µM | GI50 (SK-MEL-28 melanoma): 6.57 µM | TGI (SK-MEL-28 melanoma): > 100 µM | GI50 (M14 melanoma): 5.38 µM | TGI (M14 melanoma): > 38.5 µM and 56 µM | GI50 (HCT-116 colon): 9.87 µM | TGI (HCT-116 colon): > 100 µM and 46.1 µM | GI50 (SK-MEL-5 melanoma): 9.35 µM | TGI (SK-MEL-5 melanoma): 22 µM | GI50 (HCC-2998 colon): 5.61 µM | TGI (HCC-2998 colon): 46.9 µM | GI50 (SN12C renal): 2.93 µM | TGI (SN12C renal): > 100 µM | GI50 (UACC-62 melanoma): 3.19 µM | TGI (UACC-62 melanoma): 18.8 µM and 21.9 µM | TGI (SNB-19 CNS): > 96.2 µM and 78.6 µM | GI50 (DU-145 prostate): 6.73 µM | TGI (DU-145 prostate): > 100 µM
